According to patent USRE37770E1, “Treatment of skin conditions by use of PPARα activators” (The Regents of the University of California, priority 1997, dated 2002):

Columns and labels:
[1] = system: involucrin mRNA; assay: Involucrin mRNA in keratinocytes by Northern Blot; format: cell-based, Human; conditions: for involucrin (INV) mRNA level compared to the vehicle alone: low calcium (0.03 mM), 24 hours, 10 μM
Experimental: (§1) Human keratinocyte cells were incubated in culture containing calcium at a concentration of 0.03 mM Ca^++ (a level that is too low to induce differentiation). Also included in the culture medium were clofibrate at 400 μM or ETYA at 10 μM and 20 μM, while separate cell cultures were maintained as controls with neither clofibrate nor ETYA. The production of mRNA for both involucrin and transglutaminase was measured at intervals over a 48-hour time period (0, 6, 12, 24, and 48 hours) by Northern Blot analysis. In each case, the lighter bars represent the control cells and the darker bars the cells incubated in the clofibrate-containing medium. The degree of mRNA generated is expressed as a percent of the control at zero hours.
(§2) Human epidermis was isolated from newborn foreskins and keratinocytes were plated in serum-free keratinocyte growth medium (“KGM”; Clonetics, San Diego, Calif. USA), using conventional techniques. Cells were treated with either the test compounds in vehicle or vehicle alone (<0.1% ethanol) for 24 or 48 hours. The test compounds were obtained from Sigma Chemical Co. (St. Louis. Mo. USA) and were stored as 15 mM stock solutions at −20° C. Mevalonate was solubilized in sterile water.
(§3) Total RNA was isolated by using TRIZOL (Sigma Chemical Co.), following the manufacturer's protocol. Ethanol-precipitate RNA pellets were suspended in sterile, diethylpyrocarbonate (DEPC)-treated water, and RNA was quantified by absorbance at 260 nm using the 260/280 nm ratio as an index of purity. RNA (15 μg per sample) was size fractionated through a 1% agarose gel containing 2.2 M formaldehyde. RNA integrity was visualized following acridine orange staining of the gel following electrophoresis. The RNA was transfered to a nylon membrane that was subsequently baked at 80° C. for 2 hours. Blots were hybridized with the appropriate ^32p-labeled probe overnight at 65° C. Washes were then performed in a solution containing 0.1% SSC and 0.1% sodium dedecyl sulfate (SDS) for 20 minutes at room temperature, followed by a 20-minute wash at 65° C. Autoradiography was performed at −70° C. Blots were probed with β-actin to confirm equal loading. Appropriate bands were quantified by densitometry.
(§4) Northern blot analyses were performed on keratinocytes maintained in low calcium (0.03 mM) and incubated for 24 hours in the presence of vehicle alone (<0.1% ethanol) or vehicle containing 25-hydroxycholesterol (10 μM), 22(R)-hydroxycholesterol (10 μM) cholesterol (10 μM), or mevalonate (500 μM) (individually). The mRNA levels of involucrin (“INV”) and transglutaminase (“TG'ase”) are shown in the bar graph of FIG. 14a, the INV indicated by clear bars and the TG'ase by shaded bars, both with error limits shown.

[2] = system: transglutaminase mRNA; assay: Transglutaminase mRNA in keratinocytes by Northern Blot; format: cell-based, Human; conditions: for transglutaminase (TG'ase) mRNA level compared to the vehicle alone: low calcium (0.03 mM), 24 hours, 10 μM
Experimental: as §1, §2, §3, §4

[3] = system: involucrin protein; assay: Involucrin protein level in keratinocytes by Western Blot; format: cell-based, Human; conditions: for increase in INV protein: high calcium (1.2 mM), 15 μM; for INV protein level relative to the control: low calcium (0.03 mM), 24 hours
Experimental: Measurements of the level of the involucrin protein itself were performed in the culture medium by Western Blot. Various incubations were performed, in media containing clofibrate at concentrations ranging from 0 (vehicle only) to 400 μM and calcium ion at both 0.03 mM and 1.2 mM. The results are shown in FIG. 9a for tests with calcium ion at 0.03 mM, and in FIG. 9b for tests with calcium ion at 1.2 mM. In these figures, the protein contents are expressed as percents of the respective measurements taken from media incubated for the same period of time but in the absence of clofibrate.
The procedures of Example 8 were followed, and measurements were taken on the involucrin protein levels from cells incubated at various concentrations of farnesol and juvenile hormone III ranging from 0 (vehicle only) to 15 μM, in media containing 0.03 mM and 1.2 mM calcium ion, for 24 hours. The results are shown in FIG. 10 for farnesol and FIG. 11 for juvenile hormone III, in 0.03 mM Ca^++.
Protein concentration was assessed by protein electrophoresis and Western blotting. Cells were lysed is 2% SDS and the lysate sonicated. Protein determinations were made by use of a Bicinchoninic add protein assay (Pierce Chemical Company, Rockford, Ill. USA). Following protein determination, equal amounts at protein (50 μg) were separated by electrophoresis an 7.5% polyacrylamide gels and electroblotted onto polyvinylidene […] membranes (0.2-μ, obtained from Bio-Rad Laboratories Hercules, Calif., USA). Involucrin protein was detected by incubation over-night at 4° C. C. with a polyclonal rabbit anti-human involucrin antibody (1:1000 dilution). The involucrin-specific bands on the autoradiograms were quantitated by densitometry by densitometry. Transglutaminase protein expression was measured in a similar mmaner, using stacking, sample and running buffers containing 4 M urea, and the gels following electrophoresis were washed in 4 M urea, 25 mM TRIS-HCl, pH 7.4, 7.5 mM NaCl, 0.1 mM dithiothreitol (DTT), and 2 mM ethylenediamine tetraacetic acid for 90 minutes prior to electoblotting, allowing the transglutaminase to be detected by antibody. Specific bands on the autoradiograms were quantified by densitometry.

[4] = system: transglutaminase protein; assay: Transglutaminase protein level in keratinocytes by Western blotting; format: cell-based, Human; conditions: for TG'ase protein level relative to the control: low calcium (0.03 mM), 24 hours
Experimental: Protein concentration was assessed by protein electrophoresis and Western blotting. Cells were lysed is 2% SDS and the lysate sonicated. Protein determinations were made by use of a Bicinchoninic add protein assay (Pierce Chemical Company, Rockford, Ill. USA). Following protein determination, equal amounts at protein (50 μg) were separated by electrophoresis an 7.5% polyacrylamide gels and electroblotted onto polyvinylidene […] membranes (0.2-μ, obtained from Bio-Rad Laboratories Hercules, Calif., USA). Involucrin protein was detected by incubation over-night at 4° C. C. with a polyclonal rabbit anti-human involucrin antibody (1:1000 dilution). The involucrin-specific bands on the autoradiograms were quantitated by densitometry by densitometry. Transglutaminase protein expression was measured in a similar […], using stacking, sample and running buffers containing 4 M urea, and the gels following electrophoresis were washed in 4 M urea, 25 mM TRIS-HCl, pH 7.4, 7.5 mM NaCl, 0.1 mM dithiothreitol (DTT), and 2 mM ethylenediamine tetraacetic acid for 90 minutes prior to electoblotting, allowing the transglutaminase to be detected by antibody. Specific bands on the autoradiograms were quantified by densitometry. Levels of involucrin and transglutaminase protein were measured in keratinocytes incubated in low calcium (0.03 mM) and treated with the test compounds for 24 hours. The are shown in the bar graph of FIG. 17a, where the test compounds are compared with the vehicle alone (control) and cholesterol, using the same bar indications as in FIGS 14 through 16. […] Cholesterol had no effect.

[5] = system: Normal human keratinocytes; assay: Cornified envelope formation (35S incorporation) in keratinocytes; format: cell-based; conditions: 10 μM, 48 hours
[6] = system: keratinocytes; assay: Rate of DNA synthesis (3H-thymidine incorporation) in keratinocytes; format: cell-based, Human; conditions: 10 μM, 24 hours, low calcium (0.03 mM); 16-hour 3H-thymidine period
Experimental: The rate of DNA synthesis was determined by measuring the incorporation of ^3H-thymidine into cellular DNA after 16 hours of incubation with 2 μCi^3H-thymidine per mL of media (110 Ci/mmol methyl-1′,2′-^3H-thymidine (Amersham Laboratories, Arlington Heights, Ill. USA). The cells were then solubilized in 1N NaOH, and the radioactivity in the washed TCA precipitate was quantitated by scintillation spectroscopy.
Using the procedures set forth in the Materials and Methods section above, 25-hydroxycholesterol (10 μM) and 22(R)-hydroxycholesterol (10 μM, were compared with cholesterol (10 μM) and the vehicle alone control), with treatment for 24 hours under low calcium (0.03 mM) condition. The results are shown in the bar graph of FIG. 19.

[7] = system: involucrin mRNA; assay: Involucrin mRNA in keratinocytes by Northern Blot; format: cell-based, Human; conditions: calcium 1.2 mM, 10 μM, 24 hours
[8] = system: transglutaminase mRNA; assay: Transglutaminase mRNA in keratinocytes by Northern Blot; format: cell-based, Human; conditions: calcium 1.2 mM, 10 μM, 24 hours
[9] = doses 0-15.0 μM, low calcium, FIG. 15

| Compound | involucrin (INV) mRNA level compared to the vehicle alone [1] | transglutaminase (TG'ase) mRNA level compared to the vehicle alone [2] | increase in INV protein [3] | INV protein level relative to the control [3] | TG'ase protein level relative to the control [4] | increase in cornified envelope (CE) formation ([5]; high calcium (1.2 mM)) | increase in cornified envelope (CE) formation ([5]; low calcium (0.03 mM)) | rate of DNA synthesis [6] | INV mRNA level, induction [7] | TG'ase mRNA level, induction [8] | EC50 ([1]; Homo sapiens, Keratinocyte, doses 0-15.0 μM, low calcium, FIG. 15, read-out: dosage of half-maximal effects on INV mRNA) [µM] | dosage of maximal effects on INV mRNA [1, 9] [µM] | EC50 ([2]; Homo sapiens, Keratinocyte, doses 0-15.0 μM, low calcium, FIG. 15, read-out: dosage of half-maximal effects on TG'ase mRNA) [µM] | dosage of maximal effects on TG'ase mRNA [2, 9] [µM] | increase in TG'ase protein level ([4]; high calcium (1.2 mM), 5 μM) [fold] |
| --- | --- | --- | --- | --- | --- | --- | --- | --- | --- | --- | --- | --- | --- | --- | --- |
| CC(C)CCC[C@@H](C)[C@H]1CC[C@H]2[C@@H]3CC=C4C[C@@H](O)CC[C@]4(C)[C@H]3CC[C@]12C [cholesterol] | neither cholesterol (“chol”) nor mevalonate (“mev”) had any effect | neither cholesterol (“chol”) nor mevalonate (“mev”) had any effect | essentially no increase | had no effect | had no effect | no increase | no increase | 117 % of control | no effect | no effect |  |  |  |  |  |
| CC(C)CC[C@@H](O)[C@@H](C)[C@H]1CC[C@H]2[C@@H]3CC=C4C[C@@H](O)CC[C@]4(C)[C@H]3CC[C@]12C [22(R)-hydroxycholesterol] | approximate twofold increase | approximate twofold increase | 2.8 fold | approximately 3.2 fold | approximately 2.8 fold | 2.1 fold | 1.3 fold | 42 % of control |  |  | ~5 | 10 to 15 | ~5 | 10 to 15 | 2.1 |
